Test results published in PMC7554770, “Develop a High-Throughput Screening Method to Identify C-P4H1 (Collagen Prolyl 4-Hydroxylase 1) Inhibitors from FDA-Approved Chemicals” (International Journal of Molecular Sciences, 2020).

What was measured:
Assay type in all cases: biochemical
[1] = target: T1, C-P4H1 (collagen prolyl 4-hydroxylase 1; P4HA1 alpha subunit) (Homo sapiens, UniProt P13674); assay: Succinate-Glo Hydroxylase luminescence assay, dose response, with no-enzyme control
T1 construct: Flag-tagged P4HA1 and P4HB co-expressed in HEK-293FT cells, purified C-P4H1 tetramer; with P4HB (protein disulfide isomerase, beta subunit)

[2] = target: T1, C-P4H1 (collagen prolyl 4-hydroxylase 1; P4HA1 alpha subunit); assay: as above; remark: listed apart in the source
[3] = target: T1, C-P4H1 (collagen prolyl 4-hydroxylase 1; P4HA1 alpha subunit); assay: Succinate-Glo Hydroxylase assay, varied co-substrate concentration

T1 sequence (P13674 18-534): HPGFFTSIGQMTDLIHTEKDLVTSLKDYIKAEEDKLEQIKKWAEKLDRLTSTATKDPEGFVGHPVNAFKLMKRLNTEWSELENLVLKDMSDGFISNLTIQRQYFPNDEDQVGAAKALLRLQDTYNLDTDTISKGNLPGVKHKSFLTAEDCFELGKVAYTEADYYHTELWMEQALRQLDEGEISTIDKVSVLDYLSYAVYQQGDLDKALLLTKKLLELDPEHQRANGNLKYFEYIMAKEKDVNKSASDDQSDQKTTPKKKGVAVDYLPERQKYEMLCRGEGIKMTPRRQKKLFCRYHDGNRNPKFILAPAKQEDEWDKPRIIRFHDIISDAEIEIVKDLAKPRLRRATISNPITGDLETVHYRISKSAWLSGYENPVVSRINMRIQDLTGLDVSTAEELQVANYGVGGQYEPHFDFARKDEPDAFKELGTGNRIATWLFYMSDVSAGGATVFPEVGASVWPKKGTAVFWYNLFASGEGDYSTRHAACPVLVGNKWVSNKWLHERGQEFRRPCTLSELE
T1 sequence (P07237 18-508 partner): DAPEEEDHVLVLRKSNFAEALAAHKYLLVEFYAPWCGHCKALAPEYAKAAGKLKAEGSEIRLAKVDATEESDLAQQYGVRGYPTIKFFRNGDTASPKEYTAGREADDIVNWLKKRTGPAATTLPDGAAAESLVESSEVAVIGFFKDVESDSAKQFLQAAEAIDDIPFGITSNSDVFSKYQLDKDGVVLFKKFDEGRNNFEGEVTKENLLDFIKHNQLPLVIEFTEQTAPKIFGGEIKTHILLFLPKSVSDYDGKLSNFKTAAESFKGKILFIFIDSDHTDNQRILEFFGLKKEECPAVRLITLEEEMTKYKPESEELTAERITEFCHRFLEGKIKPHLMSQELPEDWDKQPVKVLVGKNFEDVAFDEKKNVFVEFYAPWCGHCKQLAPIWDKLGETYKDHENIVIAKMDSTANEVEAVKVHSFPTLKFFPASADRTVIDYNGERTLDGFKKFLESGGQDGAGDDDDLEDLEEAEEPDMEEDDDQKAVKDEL

Compound	Succinate-Glo Hydroxylase luminescence assay, dose response, with no-enzyme cont [2]	further results
CCOC(=O)c1ccc(O)c(O)c1 [DHB, ethyl-3,4-dihydroxybenzoic acid]	–	IC50 [1]: ~20 µM
Clc1ccccc1CN1CCc2sccc2C1 [Ticlopidine]	indicating that Silodosin and Ticlopidine specifically inhibited the C-P4H1 activity in vitro	–
C[C@H](Cc1cc2c(c(C(N)=O)c1)N(CCCO)CC2)NCCOc1ccccc1OCC(F)(F)F [Silodosin]	Both drugs inhibited C-P4H1 activity in a dose-dependent manner (Figure 4B,D).	–
O=C(O)CCC(=O)C(=O)O [α-KG, α-ketoglutarate]	–	Succinate-Glo Hydroxylase assay, varied co-substrate concentration [3]: increased concentration of GPPG and α-KG induced luminescence assay in a dose-dependent manner
